Measured values published in ChEMBL document CHEMBL1129774, “Antitumor agents 171. Cytotoxicities of lobatosides B, C, D, and E, cyclic bisdesmosides isolated from Actinostemma lobatum maxim” (1996).
“And” between values parts separate entries of the source, which are not always exact repeats. Equal entries are not always repeated.

Key:
Assay type in all cases: functional
SK-MEL-5 = test: In vitro cytotoxicity against human melanoma SK-MEL-5 cancer cell line.
UO-31 = test: In vitro cytotoxicity against human renal cancer UO-31 cell line
SF-295 = test: In vitro cytotoxicity against human CNS cancer SF-295 cell line.
A549 = test: In vitro cytotoxicity against human Non-small cell lung cancer A549/ATCC cell line.
SK-MEL-28 = test: In vitro cytotoxicity against human melanoma SK-MEL-28 cancer cell line.
HCC 2998 = test: In vitro cytotoxicity against human colon cancer HCC2998 cell line.
OVCAR-5 = test: In vitro cytotoxicity against human ovarian cancer OVCAR-5 cell line
HL-60 = test: In vitro cytotoxicity against human leukemia HL-60(TB) cancer cell line
MDA-MB-435 = test: In vitro cytotoxicity against human […] MDA-MB-435 cell line
PC-3 = test: In vitro cytotoxicity against human prostate cancer PC-3 cell line

Row | SMILES | GI50 (SK-MEL-5) | GI50 (UO-31) | GI50 (SF-295) | GI50 (A549) | GI50 (SK-MEL-28) | GI50 (HCC 2998) | GI50 (OVCAR-5) | GI50 (HL-60) | GI50 (MDA-MB-435) | GI50 (PC-3) | GI50 (HCC 2998; Homo sapiens, HCC 2998)
1 | C[C@@H]1O[C@H]2O[C@H]3[C@@H](OC[C@H](O)[C@@H]3O)OC(=O)[C@@]34CCC5C(=CC[C@@H]6[C@@]7(C)C[C@H](O)[C@H](O[C@@H]8O[C@H](CO)[C@@H](O)[C@H](O)[C@H]8O[C@@H]8O[C@H](CO)[C@H](O)[C@H](O)[C@H]8OC(=O)CC(C)(O)CC(=O)O[C@@H]1[C@@H](O[C@@H]1O[C@H](CO)[C@@H](O)[C@H](O)[C@H]1O)[C@H]2O)C(C)(C)[C@@H]7CC[C@@]56C)[C@@H]3CC(C)(C)CC4 (stereo partly specified) | 0.14 µM | 1.62 µM | 1.51 µM | 0.14 µM | 1.29 µM | 1.41 µM and 0.36 µM | 2 µM | 1.45 µM | 1.45 µM | 1.95 µM | –
2 | C[C@@H]1O[C@H]2O[C@H]3[C@@H](OC[C@H](O)[C@@H]3O)OC(=O)[C@@]34CCC5C(=CC[C@@H]6[C@@]7(C)C[C@H](O)[C@H](O[C@@H]8O[C@H](CO)[C@@H](O)[C@H](O)[C@H]8O[C@H]8OC[C@H](OC(=O)CC(C)(O)CC(=O)O[C@@H]1[C@@H](O[C@@H]1O[C@H](CO)[C@@H](O)[C@H](O)[C@H]1O)[C@H]2O)C(O)[C@H]8O)C(C)(C)[C@@H]7CC[C@@]56C)[C@@H]3CC(C)(C)CC4 (stereo partly specified) | 11.4 µM | 4.47 µM | 4.07 µM | 3.89 µM | 1.94 µM | 2.45 µM and 9.33 µM | 8.91 µM | 1.82 µM | 2.45 µM | 7.94 µM | –
3 | C[C@@H]1O[C@H]2O[C@H]3[C@@H](OC[C@H](O)[C@@H]3O)OC(=O)[C@@]34CC[C@@H]5C(=CC[C@H]6[C@@]5(C)CC[C@H]5C(C)(C)[C@@H](O[C@@H]7O[C@H](CO)[C@@H](O)[C@H](O)[C@H]7O[C@H]7OC[C@H](OC(=O)CC(C)(O)CC(=O)O[C@@H]1[C@@H](O)[C@H]2O)[C@H](O)[C@H]7O)[C@@H](O)C[C@]65C)[C@@H]3CC(C)(C)CC4 (stereo partly specified) | 4.17 µM | 6.03 µM | 3.39 µM | 2.24 µM | 1.94 µM | 2.4 µM and 8.91 µM | 1.32 µM | 1.78 µM | 5.89 µM | 2.19 µM | –
4 | C[C@@H]1O[C@H]2OC3[C@@H](OC[C@H](O)[C@@H]3O)OC(=O)[C@@]34CC[C@@H]5C(=CC[C@H]6[C@@]5(C)CC[C@H]5C(C)(C)[C@@H](O[C@@H]7O[C@H](CO)[C@@H](O)[C@H](O)[C@H]7O[C@@H]7O[C@H](CO)[C@@H](O)[C@H](O)[C@H]7OC(=O)CC(C)(O)CC(=O)O[C@@H]1[C@@H](O)[C@H]2O)[C@@H](O)C[C@]65C)[C@@H]3CC(C)(C)CC4 (stereo partly specified) | 1.2 µM | 1.23 µM | 1.78 µM | 1.32 µM | 1.51 µM | 1.15 µM | 1.62 µM | 1.41 µM | 1.58 µM | 1.38 µM | 1.32 µM
